From PubChem BioAssay AID1198 (NMMLSC, 2008)
The source made the active and inactive calls.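 Rule for the calls: active = EC50 under 10 microM for raising side scatter, a sign of cell differentiation; inactive = the rest, including fits that never converged.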

Tested on: LNCaP side scatter shift, flow cytometry, 4 days
Assay: LNCaP side scatter shift induction by compounds – cell-based, flow cytometry, side scatter granularity, dose response (AID 1198)

With `COc1ccc(N2CCN(CCCNC(=O)CC3Oc4ccc(C)cc4NC3=O)CC2)cc1` (stereo not given) the EC50 was 27 µM (inactive).
For `COc1ccc(-c2ccc(-c3noc(-c4ccccc4)n3)c(OC)n2)cc1`, the EC50 was 10.4 µM (inactive).
For `CCN1CCN(CCNC(=O)C2CCN(Cc3nc(-c4ccc(Cl)cc4)oc3C)CC2)CC1`, the EC50 was 16.6 µM (inactive).
With `Cc1cccc(-c2nsc(SCC(=O)Nc3nccs3)n2)c1` the EC50 was 12 µM (inactive).
For `CCOc1cccc2cc(-c3cn4cc(C)ccc4n3)c(=O)oc12`, the EC50 was 20.6 µM (inactive).
For `CCN1CCN(C(c2cccs2)C(C)NS(=O)(=O)c2ccc(Br)cc2)CC1` (stereo not given), the EC50 was 15.2 µM (inactive).

In order of rising EC50:
1. CCCN(CCC)CCNC(=O)C1CCN(Cc2nc(-c3ccc(Cl)cc3)oc2C)CC1  0.768 µM
2. CCN(CC)CC(=O)Nc1ccc(-c2nc3cc(NC(=O)CN(CC)CC)ccc3o2)cc1  0.83 µM
3. Cn1c(C(=O)NCCCN2CCN(c3cccc(Cl)c3)CC2)cc2c(=O)n(C)c3ccccc3c21  0.87 µM
4. N=c1n(CCN2CCCCC2)c2ccccc2n1CC(O)COc1ccccc1 (stereo not given)  0.994 µM
5. CCN1CCCC1CNC(=O)C1CCN(Cc2nc(-c3cccc(Br)c3)oc2C)CC1 (stereo not given)  1.12 µM
6. COC(=O)c1cc(-c2ccccc2)sc1NC(=O)c1cc(C)on1  1.87 µM
7. CCN(CCNC(=O)C1CCN(Cc2nc(-c3ccc(Cl)cc3)oc2C)CC1)c1ccccc1  2 µM
8. Cc1cc(N2CCN(C)CC2)nc2ccc(NC(=O)c3ccc(Br)o3)cc12  2.79 µM
9. Cc1oc(-c2ccc(Cl)cc2)nc1CN1CCC(C(=O)NCCCN2CCOCC2)CC1  3 µM
10. CN1CCN(c2cc3c(c4c2[nH]c2ccccc24)C(=O)CC(C)(C)C3)CC1  3.65 µM
11. COc1cc2nc(N3CCN(C(=O)C4COc5ccccc5O4)CC3)nc(N)c2cc1OC (stereo not given)  3.95 µM
12. Cc1noc(/C=C/c2ccco2)c1S(=O)(=O)N1CCC(C(=O)N2CCc3ccccc3C2)CC1  5.2 µM
13. Cn1nc(-c2ccc(Cl)cc2)c2cc(C(=O)NCCCN3CCOCC3)sc21  5.53 µM
14. CCN1CCN(c2ncc(C(=O)Nc3cc(Cl)c(OC)cc3OC)c3ccccc23)CC1  5.59 µM
15. COc1ccc(-c2noc(-c3cc(Cl)ccc3Cl)n2)cc1OC  5.7 µM
16. CCOc1ccc(-c2cc(C(=O)NCCCN3CCN(CC)CC3)c3ccccc3n2)cc1  6.41 µM
17. CC1CCCCN1CCNC(=O)c1ccc2c(=O)n(CCc3ccccc3)c(=O)[nH]c2c1 (stereo not given)  6.5 µM
18. CCOc1ccccc1NC(=O)c1nc[nH]c1C(=O)Nc1ccccc1OCC  6.66 µM
19. Cc1ccccc1-c1nc(CN2CCC(C(=O)NCCCN3CCOCC3)CC2)c(C)o1  6.69 µM
20. Cc1ccccc1-c1nc(CN2CCCC(C(=O)NCCCN3CCOCC3)C2)c(C)o1 (stereo not given)  7.03 µM
21. COc1ccc(CCn2c(=N)c(C(=O)NCc3ccco3)cc3c(=O)n4ccccc4nc32)cc1  7.49 µM
22. Cc1ccc2c(c1)-c1c(cnn1CC(=O)Nc1ccccc1N1CCN(C)CC1)CO2  8.06 µM
23. CCn1c(=O)cc(SCC(=O)NCCCN2CCN(c3ccccc3F)CC2)c2ccccc21  8.92 µM
24. COc1ccccc1NC(=O)c1nc[nH]c1C(=O)Nc1ccccc1OC  9.52 µM
